# Source: ChEMBL document CHEMBL4477264, “Amino acid amides of piperic acid (PA) and 4-ethylpiperic acid (EPA) as NorA efflux pump inhibitors of Staphylococcus aureus” (2016)
# Calls of active or inactive are those of the source. No cut-off for these calls is given here.
# Target: T1, Quinolone resistance protein NorA (Staphylococcus aureus) (UniProt P0A0J7)
# T1 sequence (whole entry): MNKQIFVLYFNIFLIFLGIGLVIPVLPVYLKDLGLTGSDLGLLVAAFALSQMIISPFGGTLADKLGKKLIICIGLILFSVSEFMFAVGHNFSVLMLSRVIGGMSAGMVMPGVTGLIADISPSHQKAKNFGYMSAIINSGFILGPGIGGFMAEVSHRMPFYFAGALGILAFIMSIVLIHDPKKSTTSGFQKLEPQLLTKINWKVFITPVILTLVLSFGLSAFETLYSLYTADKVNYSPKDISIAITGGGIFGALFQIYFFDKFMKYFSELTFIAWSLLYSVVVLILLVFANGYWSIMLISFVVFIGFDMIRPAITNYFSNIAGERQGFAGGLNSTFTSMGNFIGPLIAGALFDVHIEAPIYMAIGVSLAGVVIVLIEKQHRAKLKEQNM
# Assay: Inhibition of NorA efflux pump overexpressed in Staphylococcus aureus 1199B assessed as concentration required for four-fold reduction in ethidium bromide MIC measured at every 3 mins interval for 30 mins by fluorescence analysis
# Details: not given
row,SMILES,MEC
1,CCC(/C=C/C(=O)N[C@@H](Cc1ccccc1)C(=O)OC)=C\c1ccc2c(c1)OCO2,6.25 µg/mL
2,CCC(/C=C/C(=O)N1CCC[C@@H]1C(=O)OC)=C\c1ccc2c(c1)OCO2,3.12 µg/mL
3,COC(=O)[C@@H](NC(=O)/C=C/C=C/c1ccc2c(c1)OCO2)C(C)(C)C,50 µg/mL
4,CCC(/C=C/C(=O)N1CCCCC1)=C\c1ccc2c(c1)OCO2,12.5 µg/mL
5,COC(=O)CC1(CNC(=O)/C=C/C=C/c2ccc3c(c2)OCO3)CCCCC1,50 µg/mL
6,CCCCC(=O)NC1(CC(=O)NNc2ccccc2)CCN(C(=O)/C=C/C(=C/c2ccc3c(c2)OCO3)CC)CC1,3.12 µg/mL
7,CCC(/C=C/C(=O)N[C@H](C(=O)OC)C(C)(C)C)=C\c1ccc2c(c1)OCO2,25 µg/mL

# System: Staphylococcus aureus
# Assay: Antibacterial activity against Staphylococcus aureus 1199B overexpressing NorA efflux pump measured at every 3 mins interval for 30 mins by fluorescence analysis
# Assay type: functional
# Details: not given
row,SMILES,MIC
1,CCC(/C=C/C(=O)N[C@@H](Cc1ccccc1)C(=O)OC)=C\c1ccc2c(c1)OCO2,> 50 mg/L
2,CCC(/C=C/C(=O)N1CCC[C@@H]1C(=O)OC)=C\c1ccc2c(c1)OCO2,> 50 mg/L
3,O=C(/C=C/C=C/c1ccc2c(c1)OCO2)N1CCCCC1 [PIPERINE],> 50 mg/L
4,COC(=O)[C@@H](NC(=O)/C=C/C=C/c1ccc2c(c1)OCO2)C(C)(C)C,> 50 mg/L
5,CCC(/C=C/C(=O)N1CCCCC1)=C\c1ccc2c(c1)OCO2,> 50 mg/L
6,COC(=O)CC1(CNC(=O)/C=C/C=C/c2ccc3c(c2)OCO3)CCCCC1,> 50 mg/L
7,CCCCC(=O)NC1(CC(=O)NNc2ccccc2)CCN(C(=O)/C=C/C(=C/c2ccc3c(c2)OCO3)CC)CC1,> 50 mg/L
8,CCC(/C=C/C(=O)N[C@H](C(=O)OC)C(C)(C)C)=C\c1ccc2c(c1)OCO2,> 50 mg/L

# Target: T1, Quinolone resistance protein NorA (Staphylococcus aureus)
# Assay: Inhibition of NorA efflux pump overexpressed in Staphylococcus aureus 1199B assessed as reduction in EtBr efflux measured over 30 mins by fluorescence analysis
# Details: not given
row,SMILES,inhibition
1,CCC(/C=C/C(=O)N1CCC[C@@H]1C(=O)OC)=C\c1ccc2c(c1)OCO2,Dose-dependent effect
2,CCCCC(=O)NC1(CC(=O)NNc2ccccc2)CCN(C(=O)/C=C/C(=C/c2ccc3c(c2)OCO3)CC)CC1,Dose-dependent effect

# Target: T1, Quinolone resistance protein NorA (Staphylococcus aureus)
# Assay: Potency index, ratio of SK-20 MEC to compound MEC for Staphylococcus aureus 1199B overexpressing NorA efflux pump assessed as concentration required for four-fold reduction in ciprofloxacin MIC
# Details: not given
row,SMILES,Ratio
1,CCC(/C=C/C(=O)N1CCC[C@@H]1C(=O)OC)=C\c1ccc2c(c1)OCO2,4

# Target: T1, Quinolone resistance protein NorA (Staphylococcus aureus)
# Assay: Inhibition of NorA efflux pump overexpressed in Staphylococcus aureus 1199B assessed as increase in EtBr accumulation at 50 ug/ml measured after 30 mins by fluorescence analysis
# Details: not given
row,SMILES,inhibition
1,CCC(/C=C/C(=O)N1CCC[C@@H]1C(=O)OC)=C\c1ccc2c(c1)OCO2,Active
2,CCCCC(=O)NC1(CC(=O)NNc2ccccc2)CCN(C(=O)/C=C/C(=C/c2ccc3c(c2)OCO3)CC)CC1,Active

# Target: T1, Quinolone resistance protein NorA (Staphylococcus aureus)
# Assay: Inhibition of NorA efflux pump in Staphylococcus aureus 1199 assessed as concentration required for four-fold reduction in ethidium bromide MIC measured at every 3 mins interval for 30 mins by fluorescence analysis
# Details: not given
row,SMILES,MEC
1,CCC(/C=C/C(=O)N[C@@H](Cc1ccccc1)C(=O)OC)=C\c1ccc2c(c1)OCO2,> 50 µg/mL
2,CCC(/C=C/C(=O)N1CCC[C@@H]1C(=O)OC)=C\c1ccc2c(c1)OCO2,25 µg/mL
3,O=C(/C=C/C=C/c1ccc2c(c1)OCO2)N1CCCCC1 [PIPERINE],> 50 µg/mL
4,COC(=O)[C@@H](NC(=O)/C=C/C=C/c1ccc2c(c1)OCO2)C(C)(C)C,50 µg/mL
5,CCC(/C=C/C(=O)N1CCCCC1)=C\c1ccc2c(c1)OCO2,25 µg/mL
6,COC(=O)CC1(CNC(=O)/C=C/C=C/c2ccc3c(c2)OCO3)CCCCC1,25 µg/mL
7,CCCCC(=O)NC1(CC(=O)NNc2ccccc2)CCN(C(=O)/C=C/C(=C/c2ccc3c(c2)OCO3)CC)CC1,12.5 µg/mL
8,CCC(/C=C/C(=O)N[C@H](C(=O)OC)C(C)(C)C)=C\c1ccc2c(c1)OCO2,> 50 µg/mL

# Target: T1, Quinolone resistance protein NorA (Staphylococcus aureus)
# Assay: Inhibition of NorA efflux pump overexpressed in Staphylococcus aureus 1199B assessed as fold reduction in ethidium bromide MIC at 12.5 ug/ml measured at every 3 mins interval for 30 mins by fluorescence analysis
# Details: not given
row,SMILES,fold change (FC)
1,CCC(/C=C/C(=O)N[C@@H](Cc1ccccc1)C(=O)OC)=C\c1ccc2c(c1)OCO2,4
2,CCC(/C=C/C(=O)N1CCC[C@@H]1C(=O)OC)=C\c1ccc2c(c1)OCO2,4
3,O=C(/C=C/C=C/c1ccc2c(c1)OCO2)N1CCCCC1 [PIPERINE],2
4,COC(=O)[C@@H](NC(=O)/C=C/C=C/c1ccc2c(c1)OCO2)C(C)(C)C,2
5,CCC(/C=C/C(=O)N1CCCCC1)=C\c1ccc2c(c1)OCO2,4
6,COC(=O)CC1(CNC(=O)/C=C/C=C/c2ccc3c(c2)OCO3)CCCCC1,2
7,CCCCC(=O)NC1(CC(=O)NNc2ccccc2)CCN(C(=O)/C=C/C(=C/c2ccc3c(c2)OCO3)CC)CC1,8
8,CCC(/C=C/C(=O)N[C@H](C(=O)OC)C(C)(C)C)=C\c1ccc2c(c1)OCO2,2

# Target: T1, Quinolone resistance protein NorA (Staphylococcus aureus)
# Assay: Inhibition of NorA efflux pump overexpressed in Staphylococcus aureus 1199B assessed as concentration required for four-fold reduction in ciprofloxacin MIC measured after 24 hrs by broth checkerboard method relative to control
# Details: not given
row,SMILES,MEC
1,COC(=O)CC1(NC(=O)/C=C/C=C/c2ccc3c(c2)OCO3)CCCCC1,> 50 µg/mL
2,CCC(/C=C/C(=O)NCC1(CC(=O)OC)CCCCC1)=C\c1ccc2c(c1)OCO2,25 µg/mL
3,CCC(/C=C/C(=O)N1CCC(CC(=O)NC(C)(C)C(=O)OC)(NC(C)=O)CC1)=C\c1ccc2c(c1)OCO2,25 µg/mL
4,CCC(/C=C/C(=O)N[C@@H](Cc1ccccc1)C(=O)OC)=C\c1ccc2c(c1)OCO2,25 µg/mL
5,CCC(/C=C/C(=O)N1CCC[C@@H]1C(=O)OC)=C\c1ccc2c(c1)OCO2,3.12 µg/mL
6,O=C(/C=C/C=C/c1ccc2c(c1)OCO2)N1CCCCC1 [PIPERINE],> 50 µg/mL
7,COC(=O)[C@@H](NC(=O)/C=C/C=C/c1ccc2c(c1)OCO2)C(C)(C)C,12.5 µg/mL
8,CCC(/C=C/C(=O)N1CCCCC1)=C\c1ccc2c(c1)OCO2,12.5 µg/mL
9,COC(=O)CC1(CNC(=O)/C=C/C=C/c2ccc3c(c2)OCO3)CCCCC1,12.5 µg/mL
10,CCCCC(=O)NC1(CC(=O)NNc2ccccc2)CCN(C(=O)/C=C/C(=C/c2ccc3c(c2)OCO3)CC)CC1,6.25 µg/mL
11,CCC(/C=C/C(=O)N[C@H](C(=O)OC)C(C)(C)C)=C\c1ccc2c(c1)OCO2,12.5 µg/mL

# Target: T1, Quinolone resistance protein NorA (Staphylococcus aureus)
# Assay: Inhibition of NorA efflux pump overexpressed in Staphylococcus aureus 1199B assessed as fold reduction in ciprofloxacin MIC at 12.5 ug/ml measured after 24 hrs by broth checkerboard method
# Details: not given
row,SMILES,fold change (FC)
1,COC(=O)CC1(NC(=O)/C=C/C=C/c2ccc3c(c2)OCO3)CCCCC1,0
2,CCC(/C=C/C(=O)NCC1(CC(=O)OC)CCCCC1)=C\c1ccc2c(c1)OCO2,2
3,CCC(/C=C/C(=O)N1CCC(CC(=O)NC(C)(C)C(=O)OC)(NC(C)=O)CC1)=C\c1ccc2c(c1)OCO2,2
4,CCC(/C=C/C(=O)N[C@@H](Cc1ccccc1)C(=O)OC)=C\c1ccc2c(c1)OCO2,2
5,CCC(/C=C/C(=O)N1CCC[C@@H]1C(=O)OC)=C\c1ccc2c(c1)OCO2,16
6,O=C(/C=C/C=C/c1ccc2c(c1)OCO2)N1CCCCC1 [PIPERINE],0
7,COC(=O)[C@@H](NC(=O)/C=C/C=C/c1ccc2c(c1)OCO2)C(C)(C)C,4
8,CCC(/C=C/C(=O)N1CCCCC1)=C\c1ccc2c(c1)OCO2,4
9,COC(=O)CC1(CNC(=O)/C=C/C=C/c2ccc3c(c2)OCO3)CCCCC1,4
10,CCCCC(=O)NC1(CC(=O)NNc2ccccc2)CCN(C(=O)/C=C/C(=C/c2ccc3c(c2)OCO3)CC)CC1,4
11,CCC(/C=C/C(=O)N[C@H](C(=O)OC)C(C)(C)C)=C\c1ccc2c(c1)OCO2,4

# System: Staphylococcus aureus
# Assay: Antibacterial activity against wild-type Staphylococcus aureus 1199 expressing NorA efflux pump measured at every 3 mins interval for 30 mins by fluorescence analysis
# Assay type: functional
# Details: not given
row,SMILES,MIC
1,CCC(/C=C/C(=O)N[C@@H](Cc1ccccc1)C(=O)OC)=C\c1ccc2c(c1)OCO2,> 50 mg/L
2,CCC(/C=C/C(=O)N1CCC[C@@H]1C(=O)OC)=C\c1ccc2c(c1)OCO2,> 50 mg/L
3,O=C(/C=C/C=C/c1ccc2c(c1)OCO2)N1CCCCC1 [PIPERINE],> 50 mg/L
4,COC(=O)[C@@H](NC(=O)/C=C/C=C/c1ccc2c(c1)OCO2)C(C)(C)C,> 50 mg/L
5,CCC(/C=C/C(=O)N1CCCCC1)=C\c1ccc2c(c1)OCO2,> 50 mg/L
6,COC(=O)CC1(CNC(=O)/C=C/C=C/c2ccc3c(c2)OCO3)CCCCC1,> 50 mg/L
7,CCCCC(=O)NC1(CC(=O)NNc2ccccc2)CCN(C(=O)/C=C/C(=C/c2ccc3c(c2)OCO3)CC)CC1,> 50 mg/L
8,CCC(/C=C/C(=O)N[C@H](C(=O)OC)C(C)(C)C)=C\c1ccc2c(c1)OCO2,> 50 mg/L

# Target: T1, Quinolone resistance protein NorA (Staphylococcus aureus)
# Assay: Inhibition of NorA efflux pump in Staphylococcus aureus 1199 assessed as fold reduction in ethidium bromide MIC at […] measured at every 3 mins interval for 30 mins by fluorescence analysis
# Details: 12.5 ug/ml
row,SMILES,fold change (FC)
1,CCC(/C=C/C(=O)N[C@@H](Cc1ccccc1)C(=O)OC)=C\c1ccc2c(c1)OCO2,2
2,CCC(/C=C/C(=O)N1CCC[C@@H]1C(=O)OC)=C\c1ccc2c(c1)OCO2,2
3,O=C(/C=C/C=C/c1ccc2c(c1)OCO2)N1CCCCC1 [PIPERINE],0
4,COC(=O)[C@@H](NC(=O)/C=C/C=C/c1ccc2c(c1)OCO2)C(C)(C)C,0
5,CCC(/C=C/C(=O)N1CCCCC1)=C\c1ccc2c(c1)OCO2,0
6,COC(=O)CC1(CNC(=O)/C=C/C=C/c2ccc3c(c2)OCO3)CCCCC1,0
7,CCCCC(=O)NC1(CC(=O)NNc2ccccc2)CCN(C(=O)/C=C/C(=C/c2ccc3c(c2)OCO3)CC)CC1,4
8,CCC(/C=C/C(=O)N[C@H](C(=O)OC)C(C)(C)C)=C\c1ccc2c(c1)OCO2,2

# System: Staphylococcus aureus
# Assay: Antibacterial activity against Staphylococcus aureus 1199B overexpressing NorA efflux pump measured after 24 hrs by broth checkerboard method
# Assay type: functional
# Details: not given
row,SMILES,MIC
1,COC(=O)CC1(NC(=O)/C=C/C=C/c2ccc3c(c2)OCO3)CCCCC1,> 50 mg/L
2,CCC(/C=C/C(=O)NCC1(CC(=O)OC)CCCCC1)=C\c1ccc2c(c1)OCO2,> 50 mg/L
3,CCC(/C=C/C(=O)N1CCC(CC(=O)NC(C)(C)C(=O)OC)(NC(C)=O)CC1)=C\c1ccc2c(c1)OCO2,> 50 mg/L
4,CCC(/C=C/C(=O)N[C@@H](Cc1ccccc1)C(=O)OC)=C\c1ccc2c(c1)OCO2,> 50 mg/L
5,CCC(/C=C/C(=O)N1CCC[C@@H]1C(=O)OC)=C\c1ccc2c(c1)OCO2,> 50 mg/L
6,O=C(/C=C/C=C/c1ccc2c(c1)OCO2)N1CCCCC1 [PIPERINE],> 50 mg/L
7,COC(=O)[C@@H](NC(=O)/C=C/C=C/c1ccc2c(c1)OCO2)C(C)(C)C,> 50 mg/L
8,CCC(/C=C/C(=O)N1CCCCC1)=C\c1ccc2c(c1)OCO2,> 50 mg/L
9,COC(=O)CC1(CNC(=O)/C=C/C=C/c2ccc3c(c2)OCO3)CCCCC1,> 50 mg/L
10,CCCCC(=O)NC1(CC(=O)NNc2ccccc2)CCN(C(=O)/C=C/C(=C/c2ccc3c(c2)OCO3)CC)CC1,> 50 mg/L
11,CCC(/C=C/C(=O)N[C@H](C(=O)OC)C(C)(C)C)=C\c1ccc2c(c1)OCO2,> 50 mg/L
